Assay results from paper PMC6371206 (ACS Pharmacology & Translational Science, 2019).
Like-named read-outs stand apart in the source and are kept apart here.

Assays:
[1] = biological target: hD2R (D2SR), Gi1 activation (Homo sapiens, UniProt P14416); test: cell-based; assay type: cell-based; details: for Gi1 Activation Emax: 30 min, normalized to quinpirole Emax; for Gi1 Activation Emax / EC50: hD2R in HEK293 cells; for EC50: Gi1 Activation EC50, 30 min; for Emax: HEK293, read-out: Gi1 Activation Emax
hD2R (D2SR), Gi1 activation, sequence (P14416 1-414 isoform P14416-2): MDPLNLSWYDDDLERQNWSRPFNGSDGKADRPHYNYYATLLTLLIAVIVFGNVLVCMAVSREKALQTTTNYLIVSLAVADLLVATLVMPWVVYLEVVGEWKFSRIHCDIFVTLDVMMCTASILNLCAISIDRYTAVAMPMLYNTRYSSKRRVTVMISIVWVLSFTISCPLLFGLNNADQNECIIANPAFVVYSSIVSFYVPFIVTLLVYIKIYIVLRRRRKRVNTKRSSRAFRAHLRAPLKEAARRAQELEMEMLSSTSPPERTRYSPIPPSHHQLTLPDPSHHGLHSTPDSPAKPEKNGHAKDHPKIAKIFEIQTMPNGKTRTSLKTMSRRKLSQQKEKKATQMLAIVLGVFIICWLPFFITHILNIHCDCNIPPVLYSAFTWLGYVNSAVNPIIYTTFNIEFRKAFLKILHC
hD2R (D2SR), Gi1 activation, sequence (P63096 2-354 partner limits assumed): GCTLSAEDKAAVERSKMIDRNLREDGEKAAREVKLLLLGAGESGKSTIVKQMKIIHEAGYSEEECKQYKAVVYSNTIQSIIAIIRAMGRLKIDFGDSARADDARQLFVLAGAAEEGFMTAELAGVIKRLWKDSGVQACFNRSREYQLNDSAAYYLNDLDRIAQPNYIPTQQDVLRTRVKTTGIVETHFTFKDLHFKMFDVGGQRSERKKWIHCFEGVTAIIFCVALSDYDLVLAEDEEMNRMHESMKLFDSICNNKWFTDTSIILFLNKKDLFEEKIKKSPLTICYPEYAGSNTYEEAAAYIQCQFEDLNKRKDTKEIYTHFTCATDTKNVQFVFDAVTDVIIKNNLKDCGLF
hD2R (D2SR), Gi1 activation, sequence (P62873 2-340 partner limits assumed): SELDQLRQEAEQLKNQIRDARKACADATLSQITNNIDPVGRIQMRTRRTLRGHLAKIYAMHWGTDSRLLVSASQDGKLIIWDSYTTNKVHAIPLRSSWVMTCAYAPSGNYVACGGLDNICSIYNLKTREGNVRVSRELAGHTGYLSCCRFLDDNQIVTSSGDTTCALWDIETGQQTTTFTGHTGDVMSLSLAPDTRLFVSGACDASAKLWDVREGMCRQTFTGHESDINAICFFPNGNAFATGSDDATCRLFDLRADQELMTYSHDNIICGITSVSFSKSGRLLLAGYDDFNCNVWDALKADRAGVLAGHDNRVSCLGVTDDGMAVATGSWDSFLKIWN
hD2R (D2SR), Gi1 activation, sequence (P59768 2-68 partner limits assumed): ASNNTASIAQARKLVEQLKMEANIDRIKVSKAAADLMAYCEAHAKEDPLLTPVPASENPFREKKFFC

[2] = biological target: hD2R (D2SR), GoA activation (Homo sapiens, UniProt P14416); test: cell-based; details: for EC50: GoA Activation EC50, 30 min, hD2R in HEK293 cells; for Emax: HEK293, read-out: GoA Activation Emax
hD2R (D2SR), GoA activation, sequence (P14416 1-414 isoform P14416-2): as the sequence (P14416 1-414 isoform P14416-2) above
hD2R (D2SR), GoA activation, sequence (P09471 2-354 partner limits assumed): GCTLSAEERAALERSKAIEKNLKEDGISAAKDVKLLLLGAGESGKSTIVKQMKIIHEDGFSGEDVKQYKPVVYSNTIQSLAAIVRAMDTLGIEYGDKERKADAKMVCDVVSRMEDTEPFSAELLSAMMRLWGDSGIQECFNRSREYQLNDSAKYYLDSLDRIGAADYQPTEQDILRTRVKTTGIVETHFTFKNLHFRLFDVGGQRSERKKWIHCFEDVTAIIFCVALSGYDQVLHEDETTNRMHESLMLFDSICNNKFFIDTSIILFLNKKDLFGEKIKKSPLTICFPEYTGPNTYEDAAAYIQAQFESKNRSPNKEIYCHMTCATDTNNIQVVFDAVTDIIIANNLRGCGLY
hD2R (D2SR), GoA activation, sequence (P62873 2-340 partner limits assumed): as the sequence (P62873 2-340 partner limits assumed) above
hD2R (D2SR), GoA activation, sequence (P59768 2-68 partner limits assumed): as the sequence (P59768 2-68 partner limits assumed) above

[3] = biological target: hD2R (D2SR), cAMP inhibition (Homo sapiens, UniProt P14416); test: cell-based; details: for Emax: HEK293, read-out: cAMP Inhibition Emax; for EC50: cAMP Inhibition EC50, 30 min, hD2R in HEK293 cells
hD2R (D2SR), cAMP inhibition, sequence (P14416 1-414 isoform P14416-2): as the sequence (P14416 1-414 isoform P14416-2) above

[4] = biological target: hD2R (D2SR), β-arrestin 2 recruitment (Homo sapiens, UniProt P14416); test: cell-based; assay type: cell-based; details: for Emax: HEK293, read-out: βArrestin2 Recruitment Emax
hD2R (D2SR), β-arrestin 2 recruitment, sequence (P14416 1-414 isoform P14416-2): as above
hD2R (D2SR), β-arrestin 2 recruitment, sequence (P32121 whole entry partner): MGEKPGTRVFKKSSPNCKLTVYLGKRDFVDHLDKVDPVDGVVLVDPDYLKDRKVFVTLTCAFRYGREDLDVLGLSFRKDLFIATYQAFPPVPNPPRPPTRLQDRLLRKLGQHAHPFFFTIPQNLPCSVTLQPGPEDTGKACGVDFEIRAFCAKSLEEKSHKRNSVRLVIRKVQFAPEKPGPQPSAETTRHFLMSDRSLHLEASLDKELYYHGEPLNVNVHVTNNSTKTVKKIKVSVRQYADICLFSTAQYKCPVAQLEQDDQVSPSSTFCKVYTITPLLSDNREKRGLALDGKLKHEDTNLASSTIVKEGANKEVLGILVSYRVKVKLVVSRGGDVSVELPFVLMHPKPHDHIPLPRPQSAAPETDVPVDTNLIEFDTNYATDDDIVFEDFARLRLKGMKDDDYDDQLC

[5] = system: hD2R; test: Pairwise bias factor calculation; assay type: cell-based, human; details: for Bias factor GoA−βarrestin / Bias factor cAMP−βarrestin / Bias factor Gi1–GoA activation: logarithmic scale, relative to quinpirole, 30 min data; for Bias factor Gi1–GoA activation: negative = GoA bias; for Go-protein bias over β-arrestin: bias expressed as fold
[6] = system: D2R-expressing dopaminergic neurons in VTA and SNc (GIRK activity); assay type: cell-based, mouse

In the case of CC1Cc2ccccc2N1C(=O)c1nc2ccccc2s1 (stereo not shown) [Compound 2, reference compound], the “Gi1 Activation Emax” value [1] is reported as “low efficacy”, the EC50 [1] is reported as 0.0397 ± 0.0397 µM and the Emax [1] is reported as 8.1 ± 8.2%. The EC50 [2] was 0.0611 ± 0.0488 µM, the Emax [2] was 31.9 ± 7% and the Emax [3] was 58.5 ± 30.2%. For the same compound, the EC50 [3] was 0.0229 ± 0.019 µM and the “βArrestin2 Recruitment Emax” value ([4]; 30 min, hD2R in HEK293 cells, normalized to quinpirole Emax) was “low efficacy”.
CN(CCCCNC(=O)c1nc2ccccc2s1)[C@@H]1Cc2cccc3[nH]c(=O)n(c23)C1 [Compound 9] showed an EC50 [1] of 0.301 ± 0.147 µM, an Emax [1] of 85.1 ± 8.6% and an EC50 [2] of 0.117 ± 0.059 µM. For the same compound, the Emax [2] was 75.5 ± 7.8%, the Emax [3] was 84 ± 6.2% and the EC50 [3] was 0.0791 ± 0.0317 µM. The EC50 [4] was 0.794 ± 0.711 µM, the Emax [4] was 64.2 ± 25.6% and the “Bias factor GoA−βarrestin” value [5] was 0.55. For the same compound, the “Bias factor cAMP−βarrestin” value [5] was 0.56 and the “Bias factor Gi1–GoA activation” value [5] was 0.43.
CCN1CCCC1CNC(=O)c1cc(S(N)(=O)=O)ccc1OC (stereo not shown) [sulpiride] was tested, and the “effect of D2R antagonist on agonist-induced holding current change” value [6] was “inhibited the change in the holding current induced by either sumanirole or 11”.
CN(CCCCNC(=O)c1ccc2scnc2c1)[C@@H]1Cc2cccc3[nH]c(=O)n(c23)C1 [Compound 8] was tested, and the “Gi1 Activation Emax” value [1] was “fully efficacious”, the EC50 [1] was 0.144 ± 0.0526 µM and the Emax [1] was 108 ± 7.3%. For the same compound, the EC50 [2] was 0.0073 ± 0.0036 µM, the Emax [2] was 92.1 ± 7.2% and the Emax [3] was 95.4 ± 4.7%. It also gave an EC50 [3] of 0.0052 ± 0.0018 µM, an EC50 [4] of 0.208 ± 0.173 µM and an Emax [4] of 76.4 ± 20.1%. For the same compound, the “Bias factor GoA−βarrestin” value [5] was 1.21, the “Bias factor cAMP−βarrestin” value [5] was 1.05 and the “Bias factor Gi1–GoA activation” value [5] was “–0.44”.
For CN(C[C@@H]1C[C@H]1CCNC(=O)c1cc2ccccc2[nH]1)[C@@H]1Cc2cccc3[nH]c(=O)n(c23)C1 [Compound 19], the EC50 [1] was 0.129 ± 0.0563 µM, the Emax [1] was 57.6 ± 4.9% and the EC50 [2] was 0.001 ± 0.0005 µM. It also gave an Emax [2] of 74 ± 5.4%, an Emax [3] of 60.5 ± 1.5% and an EC50 [3] of 0.006 ± 0.0011 µM. The EC50 [4] was 0.0805 ± 0.0357 µM, the Emax [4] was 30.5 ± 2.6% and the “Go-protein bias over β-arrestin” value [5] was greater than 1000 fold. The “Bias factor GoA−βarrestin” value [5] was 3.44 and the “Bias factor cAMP−βarrestin” value [5] was 1.93.
In the case of CN[C@@H]1Cc2cccc3[nH]c(=O)n(c23)C1 [Sumanirole, (R)-5,6-dihydro-5-(methylamino)-4H-imidazo[4,5,1-ij]quinolin-2(1H)-one, reference compound], the “Bias factor GoA−βarrestin” value [5] is reported as 0.15, the “Bias factor cAMP−βarrestin” value [5] is reported as “–0.10” and the “Bias factor Gi1–GoA activation” value [5] is reported as “–0.54”. The “ligand-induced change of holding current” value ([6]; whole cell voltage-clamp, −60 mV, 3 and 30 μM) was “produced an increase in the holding current”.
In the case of NCCc1ccc(O)c(O)c1 [dopamine], the “ligand-induced change of holding current” value [6] is reported as “produced an increase in the holding current”.
In the case of CN(CCCCNC(=O)c1cc2ccccc2[nH]1)[C@@H]1Cc2cccc3[nH]c(=O)n(c23)C1 [Compound 1], the Emax [1] is reported as 51 ± 4.4%, the “Go-protein bias over β-arrestin” value [5] is reported as roughly 30 fold and the “Bias factor GoA−βarrestin” value [5] is reported as 1.51. For the same compound, the “Bias factor Gi1–GoA activation” value [5] was “–0.98”.
Work on CN(CC[C@@H]1C[C@H]1CNC(=O)c1cc2ccccc2[nH]1)[C@@H]1Cc2cccc3[nH]c(=O)n(c23)C1 [Compound 20] yielded an EC50 [1] of 0.184 ± 0.0636 µM, an Emax [1] of 72.4 ± 4.6% and an EC50 [2] of 0.103 ± 0.0282 µM. For the same compound, the Emax [2] was 80.3 ± 3.8%, the Emax [3] was 59.8 ± 1.5% and the EC50 [3] was 0.0811 ± 0.0131 µM. The EC50 [4] was 0.208 ± 0.0858 µM, the Emax [4] was 26 ± 2.1% and the “Go-protein bias over β-arrestin” value [5] was greater than 1000 fold. For the same compound, the “Bias factor GoA−βarrestin” value [5] was 2.50, the “Bias factor cAMP−βarrestin” value [5] was 1.39 and the “Bias factor Gi1–GoA activation” value [5] was 0.24.
